Legend:
GluN1/GluN2B = GluN1/GluN2B (Rattus norvegicus, UniProt P35439+Q00960); assay type: cell-based
GluN1/GluN2C = GluN1/GluN2C (Rattus norvegicus, UniProt P35439+Q00961); assay type: cell-based
native NMDA receptors = assay type: binding; conditions: native iGluRs, rat synaptosomes
GluN1/GluN2D = GluN1/GluN2D (Rattus norvegicus, UniProt P35439+Q62645); assay type: cell-based
GluN1/GluN2A [1] = molecular target: GluN1/GluN2A (Rattus norvegicus, UniProt P35439+Q00959); assay type: cell-based
GluN1/GluN2A [2] = molecular target: GluN1/GluN2A (Rattus norvegicus, UniProt Q00959); assay type: cell-based; conditions: from Ki values
Chain of GluN1/GluN2A (Rattus norvegicus, UniProt Q00959) (Q00959 23-1464, other chains not shown): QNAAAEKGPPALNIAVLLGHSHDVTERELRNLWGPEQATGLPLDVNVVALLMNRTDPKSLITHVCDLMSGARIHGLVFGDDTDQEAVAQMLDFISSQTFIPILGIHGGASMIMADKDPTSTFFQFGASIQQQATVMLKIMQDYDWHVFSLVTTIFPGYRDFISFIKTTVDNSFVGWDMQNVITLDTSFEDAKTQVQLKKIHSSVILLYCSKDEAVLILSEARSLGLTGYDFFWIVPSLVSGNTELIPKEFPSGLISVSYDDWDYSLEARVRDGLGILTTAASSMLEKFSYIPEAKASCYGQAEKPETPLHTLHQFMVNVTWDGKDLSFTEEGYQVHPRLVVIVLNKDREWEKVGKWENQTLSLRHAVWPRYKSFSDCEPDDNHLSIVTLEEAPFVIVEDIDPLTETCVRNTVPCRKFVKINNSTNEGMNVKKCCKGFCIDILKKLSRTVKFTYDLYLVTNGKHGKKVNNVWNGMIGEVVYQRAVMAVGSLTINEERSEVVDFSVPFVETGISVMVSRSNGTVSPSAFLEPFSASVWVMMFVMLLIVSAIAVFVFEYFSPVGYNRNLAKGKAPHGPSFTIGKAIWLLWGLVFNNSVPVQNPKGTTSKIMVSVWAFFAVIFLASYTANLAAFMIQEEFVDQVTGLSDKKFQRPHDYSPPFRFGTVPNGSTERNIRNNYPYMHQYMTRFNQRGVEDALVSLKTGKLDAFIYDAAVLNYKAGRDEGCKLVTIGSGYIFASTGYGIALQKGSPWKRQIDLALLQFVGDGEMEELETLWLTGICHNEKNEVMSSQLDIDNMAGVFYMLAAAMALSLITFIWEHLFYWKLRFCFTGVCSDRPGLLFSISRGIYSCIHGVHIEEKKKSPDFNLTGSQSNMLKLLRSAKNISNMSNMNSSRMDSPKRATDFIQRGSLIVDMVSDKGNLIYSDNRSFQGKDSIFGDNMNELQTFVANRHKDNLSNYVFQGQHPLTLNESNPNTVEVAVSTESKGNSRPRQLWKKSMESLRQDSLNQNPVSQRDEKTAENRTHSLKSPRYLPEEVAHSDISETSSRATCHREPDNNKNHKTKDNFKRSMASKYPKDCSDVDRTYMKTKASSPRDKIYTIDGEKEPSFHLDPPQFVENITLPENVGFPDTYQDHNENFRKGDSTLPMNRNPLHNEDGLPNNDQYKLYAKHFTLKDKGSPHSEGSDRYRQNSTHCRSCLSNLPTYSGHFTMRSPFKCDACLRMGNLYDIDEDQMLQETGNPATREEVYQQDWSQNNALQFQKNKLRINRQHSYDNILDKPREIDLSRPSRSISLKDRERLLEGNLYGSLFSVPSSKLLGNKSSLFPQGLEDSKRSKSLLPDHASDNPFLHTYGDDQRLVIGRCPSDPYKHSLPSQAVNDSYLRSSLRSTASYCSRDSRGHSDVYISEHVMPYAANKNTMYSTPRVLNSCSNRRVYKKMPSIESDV

Chain of GluN1/GluN2A (Rattus norvegicus, UniProt P35439+Q00959) (Q00959 23-1464, other chains not shown): as above
Chain of GluN1/GluN2D (Q62645 28-1323, other chains not shown): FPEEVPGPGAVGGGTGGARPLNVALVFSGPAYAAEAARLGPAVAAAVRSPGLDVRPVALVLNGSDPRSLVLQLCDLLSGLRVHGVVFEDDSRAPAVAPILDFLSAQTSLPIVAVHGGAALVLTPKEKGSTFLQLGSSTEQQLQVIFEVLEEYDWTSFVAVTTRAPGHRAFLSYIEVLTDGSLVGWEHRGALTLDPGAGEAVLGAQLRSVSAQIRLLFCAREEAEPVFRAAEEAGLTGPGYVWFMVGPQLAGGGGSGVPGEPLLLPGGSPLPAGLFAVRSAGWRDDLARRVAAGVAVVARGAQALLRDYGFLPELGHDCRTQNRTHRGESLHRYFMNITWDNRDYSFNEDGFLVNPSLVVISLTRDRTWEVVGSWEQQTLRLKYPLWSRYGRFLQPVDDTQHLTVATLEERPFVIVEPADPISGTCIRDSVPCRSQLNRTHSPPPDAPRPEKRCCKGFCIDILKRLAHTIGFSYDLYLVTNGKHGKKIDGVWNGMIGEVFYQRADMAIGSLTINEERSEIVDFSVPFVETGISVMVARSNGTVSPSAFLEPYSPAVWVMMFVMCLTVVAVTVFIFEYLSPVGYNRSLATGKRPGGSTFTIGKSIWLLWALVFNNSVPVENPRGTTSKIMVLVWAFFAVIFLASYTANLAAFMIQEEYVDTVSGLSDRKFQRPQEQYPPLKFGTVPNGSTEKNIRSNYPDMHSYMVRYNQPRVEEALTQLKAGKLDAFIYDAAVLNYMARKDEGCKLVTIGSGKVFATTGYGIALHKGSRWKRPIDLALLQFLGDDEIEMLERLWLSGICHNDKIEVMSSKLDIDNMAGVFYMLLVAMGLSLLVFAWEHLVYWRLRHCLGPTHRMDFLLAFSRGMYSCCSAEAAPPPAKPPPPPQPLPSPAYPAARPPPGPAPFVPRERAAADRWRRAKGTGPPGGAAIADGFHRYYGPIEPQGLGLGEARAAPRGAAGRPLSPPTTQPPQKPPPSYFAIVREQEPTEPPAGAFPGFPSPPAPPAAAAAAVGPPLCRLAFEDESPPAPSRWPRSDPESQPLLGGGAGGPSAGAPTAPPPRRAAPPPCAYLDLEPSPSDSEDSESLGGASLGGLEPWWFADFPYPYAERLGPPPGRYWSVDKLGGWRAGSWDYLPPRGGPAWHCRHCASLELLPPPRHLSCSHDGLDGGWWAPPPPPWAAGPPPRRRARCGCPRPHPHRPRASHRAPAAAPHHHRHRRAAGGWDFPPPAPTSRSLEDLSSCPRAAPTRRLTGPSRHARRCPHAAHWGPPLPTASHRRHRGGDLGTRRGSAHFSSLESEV

Cl.O=C(O)C(Cc1nnn[nH]1)[C@@H]1CCN[C@H]1C(=O)O (relative stereo) [3q-s3,4, trans-3-(1-Carboxy-2-(1H-tetrazol-5-yl)ethyl)pyrrolidine-2-carboxylic Acid Hydrochloride]
Ki (GluN1/GluN2B): 2.7 ± 0.1 µM
Ki (GluN1/GluN2C): 12 ± 1 µM
pKi NMDA (mean ± SEM, in brackets) (native NMDA receptors): 6.61 ± 0.07
Ki (GluN1/GluN2D): 62 ± 9 µM
Ki (GluN1/GluN2A [1]): 0.61 ± 0.02 µM
fold preference as antagonist for GluN1/GluN2A over GluN1/GluN2B-D (GluN1/GluN2A [2]): 4.4−100 fold
